Source: patent publication US8067640B2, “Method for the separation of intermediates which may be used for the preparation of escitalopram” (H. Lundbeck A/S, priority 2002, dated 2011)

Experiment: Partition of compound A and compound B between aqueous layer and toluene layer in the presence of various acids
Details: 40° C., 1 hour
Experimental: Thus-obtained mixed solvent was separated into aqueous layer and toluene layer, and then the concentrations of compound A and B in each layer were measured. Partition coefficients Ka or Kb are calculated according to the following equation. Ka=(Concentration of the compound A in aqueous layer)/(Concentration of the compound A in toluene layer) Kb=(Concentration of the compound B in aqueous layer)/(Concentration of the compound B in toluene layer)

With `CN(C)CCC[C@](O)(c1ccc(F)cc1)c1ccc(C#N)cc1CO` [compound A, (S)-4-[4-dimethylamino-1-(4′-fluorophenyl)-1-hydroxybutyl]-3-hydroxymethylbenzonitrile] the “Partition coefficient Ka” value (3-Phenylpropionic acid) was 5.67, the “Partition coefficient Ka” value (4-Biphenylcarboxylic acid) was 0.87 and the “Partition coefficient Ka” value (Benzoic acid) was 18.4. For the same compound, the “Partition coefficient Ka” value (Caproic acid) was 5.04, the “Partition coefficient Ka” value (Cyclohexanecarboxylic acid) was 3.89 and the “Partition coefficient Ka” value (Isobutyric acid) was 39.2. For the same compound, the “Partition coefficient Ka” value (Isophthalic acid) was 7.43, the “Partition coefficient Ka” value (Isovaleric acid) was 24.4 and the “Partition coefficient Ka” value (Maleic acid) was 31.1. The “Partition coefficient Ka” value (Malonic acid) was 38.5, the “Partition coefficient Ka” value (Oxalic acid) was 1092 and the “Partition coefficient Ka” value (Phthalic acid) was 20.8. For the same compound, the “Partition coefficient Ka” value (Pivalic acid) was 9.03, the “Partition coefficient Ka” value (Salicylic acid) was 13.0 and the “Partition coefficient Ka” value (Succinic acid) was 24.1. For the same compound, the “Partition coefficient Ka” value (Terephthalic acid) was 16.8, the “Partition coefficient Ka” value (acid: None) was 0.17 and the “Partition coefficient Ka” value (m-Chlorobenzoic acid) was 4.98. For the same compound, the “Partition coefficient Ka” value (m-Methoxybenzoic acid) was 9.23, the “Partition coefficient Ka” value (m-Nitrobenzoic acid) was 19.5 and the “Partition coefficient Ka” value (m-Toluic acid) was 6.00. The “Partition coefficient Ka” value (o-Chlorobenzoic acid) was 22.8, the “Partition coefficient Ka” value (o-Methoxybenzoic acid) was 27.1 and the “Partition coefficient Ka” value (o-Nitrobenzoic acid) was 30.7. For the same compound, the “Partition coefficient Ka” value (o-Toluic acid) was 9.11, the “Partition coefficient Ka” value (p-Chlorobenzoic acid) was 7.01 and the “Partition coefficient Ka” value (p-Ethylbenzoic acid) was 2.28. The “Partition coefficient Ka” value (p-Fluorobenzoic acid) was 14.4, the “Partition coefficient Ka” value (p-Hydroxybenzoic acid) was 70.8 and the “Partition coefficient Ka” value (p-Methoxybenzoic acid) was 12.3. For the same compound, the “Partition coefficient Ka” value (p-Toluenesulfonic acid) was 164 and the “Partition coefficient Ka” value (p-Toluic acid) was 5.97.
